# Measured values as given in patent US12371464B2, “Polypeptides and uses thereof” (MEDIMMUNE LIMITED, priority 2020, dated 2025).
# Numbered stars: 1 amine (or outer) side, 2 acyl side, 3 side chain; on linkers, the order of the positions; unused ones are H or OH. Bridge positions count the residues as written; N and C are the ends. Side chains are listed from the residue outwards. Peptide text beside a SMILES is read from it. * marks the point of attachment. C20 diacid = O=C(O)CCCCCCCCCCCCCCCCCCC(=O)*; C18 diacid = O=C(O)CCCCCCCCCCCCCCCCC(=O)*; γGlu = O=C(O)[C@H](CCC(=O)[*:2])N[*:1]; AEEA = NCCOCCOCC(=O)O
# Assay: Thioflavin T fibrillation assay
# Assay type: physicochemical
# Details: for Time taken to detect increase in fluorescence intensity: 1 mg/mL in 25 mM sodium acetate buffer pH 4.0, 37° C., 6 days, orbital shaking, >144 h = no increase; for fibril-forming tendency on conjugating pramlintide to a lipid: as seen in Table 7
# In short: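 Peptides at 1 mg/mL in 25 mM sodium acetate pH 4.0 were mixed with ThT (0.25 mM stock) and held 6 days at 37 °C with intermittent orbital shaking at 500–750 rpm. Fluorescence (ex 444/em 480 nm) was read every 30 min, with buffer baseline correction and 5 replicates. Value: mean time to a detectable fluorescence increase.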
SMILES,Time taken to detect increase in fluorescence intensity [h],fibril-forming tendency on conjugating pramlintide to a lipid
CC[C@H](C)[C@H](NC(=O)[C@@H]1CCCN1C(=O)CNC(=O)[C@H](Cc1ccccc1)NC(=O)[C@H](CC(N)=O)NC(=O)[C@H](CC(N)=O)NC(=O)[C@H](CO)NC(=O)[C@H](CO)NC(=O)[C@H](Cc1c[nH]cn1)NC(=O)[C@@H](NC(=O)[C@H](CC(C)C)NC(=O)[C@H](Cc1ccccc1)NC(=O)[C@H](CC(N)=O)NC(=O)[C@H](C)NC(=O)[C@H](CC(C)C)NC(=O)[C@H](CCCNC(=N)N)NC(=O)[C@H](CCC(N)=O)NC(=O)[C@@H](NC(=O)[C@H](C)NC(=O)[C@@H]1CSSC[C@H](NC(=O)[C@H](CCCCN)NC(=O)COCCOCCNC(=O)COCCOCCNC(=O)CC[C@H](NC(=O)CCCCCCCCCCCCCCCCCCC(=O)O)C(=O)O)C(=O)N[C@@H](CC(N)=O)C(=O)N[C@@H]([C@@H](C)O)C(=O)N[C@@H](C)C(=O)N[C@@H]([C@@H](C)O)C(=O)N1)[C@@H](C)O)C(C)C)C(=O)N[C@@H](CC(C)C)C(=O)N1CCC[C@H]1C(=O)N1CCC[C@H]1C(=O)N[C@H](C(=O)N[C@@H](CC(N)=O)C(=O)N[C@H](C(=O)NCC(=O)N[C@@H](CO)C(=O)N[C@@H](CC(N)=O)C(=O)N[C@H](C(=O)N[C@@H](Cc1ccc(O)cc1)C(N)=O)[C@@H](C)O)C(C)C)[C@@H](C)O [Peptide 113] ({C20 diacid-γGlu-AEEA-AEEA}-KCNTATCATQRLANFLVHSSNNFGPILPPTNVGSNTY-NH2; disulfide 2-7),<5,increases the fibril-forming tendency
CC[C@H](C)[C@H](NC(=O)[C@@H]1CCCN1C(=O)CNC(=O)[C@H](Cc1ccccc1)NC(=O)[C@H](CC(N)=O)NC(=O)[C@H](CC(N)=O)NC(=O)[C@H](CO)NC(=O)[C@H](CO)NC(=O)[C@H](Cc1c[nH]cn1)NC(=O)[C@@H](NC(=O)[C@H](CC(C)C)NC(=O)[C@H](Cc1ccccc1)NC(=O)[C@H](CC(N)=O)NC(=O)[C@H](C)NC(=O)[C@H](CC(C)C)NC(=O)[C@H](CCCNC(=N)N)NC(=O)[C@H](CCC(N)=O)NC(=O)[C@@H](NC(=O)[C@H](C)NC(=O)[C@@H]1CSSC[C@H](NC(=O)[C@@H](N)CCCCNC(=O)CC[C@H](NC(=O)CC[C@H](NC(=O)CCCCCCCCCCCCCCCCC(=O)O)C(=O)O)C(=O)O)C(=O)N[C@@H](CC(N)=O)C(=O)N[C@@H]([C@@H](C)O)C(=O)N[C@@H](C)C(=O)N[C@@H]([C@@H](C)O)C(=O)N1)[C@@H](C)O)C(C)C)C(=O)N[C@@H](CC(C)C)C(=O)N1CCC[C@H]1C(=O)N1CCC[C@H]1C(=O)N[C@H](C(=O)N[C@@H](CC(N)=O)C(=O)N[C@H](C(=O)NCC(=O)N[C@@H](CO)C(=O)N[C@@H](CC(N)=O)C(=O)N[C@H](C(=O)N[C@@H](Cc1ccc(O)cc1)C(N)=O)[C@@H](C)O)C(C)C)[C@@H](C)O [Peptide 5] (H-K([γGlu-γGlu-C18 diacid])CNTATCATQRLANFLVHSSNNFGPILPPTNVGSNTY-NH2; disulfide 2-7; N-terminus assumed),7,increases the fibril-forming tendency
